The results in this text go back to US11147272B2, “Pyridone compounds and agricultural and horticultural fungicides comprising the same as active ingredients” (MITSUI CHEMICALS AGRO, INC., priority 2017, dated 2021).

One experiment has as its system Magnaporthe grisea. As to the kind of experiment: whole plant or invertebrate. It counts as in vivo.
For a further experiment, the system named is Plasmopara viticola. As to the kind of experiment: Test Example G: Downy mildew on vine. The conditions noted are these: for Test G control value: 7 to 10 days after inoculation.
In another experiment the test system is Puccinia recondita. As to the kind of experiment: Test Example E: Brown rust on wheat. It counts as in vivo.
Experiment [1] deals with Colletotrichum orbiculare. As to the kind of experiment: Test Example H: Anthracnose on cucumber. Conditions: for Test H control value: 6 to 10 days after inoculation.
The test system of another experiment is Alternaia brassicicola. As to the kind of experiment: Test Example C: Alternaria sooty spot on cabbage. It counts as in vivo. From the text: Seeds of a test plant (cabbage variety: Shikidori) were planted and cultivated until the cotyledons extended.
<Control Value> Control value=100{1−(n/3)}

The subject of the next experiment is Botrytis cinerea. As to the kind of experiment: Test Example B: Gray mold on tomato.
Experiment [2] has as its system Blumeria graminis f. sp. hordei. As to the kind of experiment: Test Example D: Powdery mildew on barley.
For another experiment, the system named is Phytophthora infestans. As to the kind of experiment: whole plant or invertebrate. It counts as in vivo.
[3] abbreviates: Blast on rice, control value class.
Where [4] appears, read: Downy mildew on vine, 250 ppm spray.
Where [5] appears, read: Brown rust on wheat, control value class.
The mark [6] stands for this setting: Anthracnose on cucumber, 250 ppm spray.
Setting [7] is: Alternaria sooty spot on cabbage, control value class.
The mark [8] stands for this setting: Gray mold on tomato, control value class.
The mark [9] stands for this setting: Powdery mildew on barley, control value class.
Setting [10] is: Late blight on tomato, control value class.
Where [11] appears, read: 250 ppm drug solution sprayed on test plant.

Structures are written as SMILES. A value given as a limit tells only on which side of the number the result lay.

As to `CCn1c(-c2ccc(F)cc2Cl)c(C2CCCC2)cc(Br)c1=O` [compound 221], in the experiment with Magnaporthe grisea (setting [3]), the “Test A control value” is recorded as “H (more than 50% control value)”. Moreover, the “Test G control value” in the experiment with Plasmopara viticola (setting [4]) is “L (50% or less control value)”. Also, the “Test E control value” in the experiment on Puccinia recondita (setting [5]) was “H (more than 50% control value)”. Moreover, in experiment [1] (setting [6]), the “Test H control value” is recorded as “L (50% or less control value)”. Also, in the experiment on Alternaia brassicicola (setting [7]), the “Test C control value” is given as “H (more than 50% control value)”. The “Test B control value” in the experiment with Botrytis cinerea (setting [8]) was “H (more than 50% control value)”. Besides, the “Test D control value” in experiment [2] (setting [9]) is reported as “H (more than 50% control value)”. Further, the “Test F control value” in the experiment on Phytophthora infestans (setting [10]) is reported as “L (50% or less control value)”.
`CCCc1cc(Cl)c(=O)n(C)c1-c1ccc(OC)cc1C` [compound 433]: the “Test A control value” with Magnaporthe grisea (setting [11]) is “L (50% or less control value)”. Also, the “Test G control value” in the experiment with Plasmopara viticola (250 ppm drug solution sprayed (2.5 ml/pot), grape Neomuscat) was “H (more than 50% control value)”. For the same compound, the “Test E control value” with Puccinia recondita (setting [11]) was “H (more than 50% control value)”. Moreover, in experiment [1] (250 ppm drug solution sprayed (2.5 ml/pot), cucumber Sagami Hanjiro), the “Test H control value” was “H (more than 50% control value)”. In the experiment on Alternaia brassicicola (setting [11]), the “Test C control value” was “H (more than 50% control value)”. Further, the “Test B control value” with Botrytis cinerea (setting [11]) is listed as “H (more than 50% control value)”. Besides, the “Test D control value” in experiment [2] (setting [11]) was “H (more than 50% control value)”. In addition, in the experiment on Phytophthora infestans (setting [11]), the “Test F control value” is “L (50% or less control value)”.
Take `CCCc1cc(Br)c(=O)n(CC)c1-c1ccc(F)cc1Br` [compound 369]: in the experiment on Magnaporthe grisea (setting [3]), the “Test A control value” is listed as “H (more than 50% control value)”. The “Test G control value” in the experiment with Plasmopara viticola (setting [4]) is reported as “H (more than 50% control value)”. In addition, in the experiment with Puccinia recondita (setting [5]), the “Test E control value” is reported as “H (more than 50% control value)”. In addition, the “Test H control value” in experiment [1] (setting [6]) was “H (more than 50% control value)”. The “Test C control value” with Alternaia brassicicola (setting [7]) is “H (more than 50% control value)”. For the same compound, the “Test B control value” in the experiment with Botrytis cinerea (setting [8]) is reported as “H (more than 50% control value)”. For the same compound, in experiment [2] (setting [9]), the “Test D control value” is given as “H (more than 50% control value)”. Moreover, in the experiment on Phytophthora infestans (setting [10]), the “Test F control value” is listed as “H (more than 50% control value)”.
Take `CC(C)Cc1cc(Cl)c(=O)n(C)c1-c1ccc(F)cc1` [compound 155]: the “Test A control value class” value with Magnaporthe grisea (Blast on rice, class of control value) is given as “L (50% or less control value)”. The “Test G control value class” value with Plasmopara viticola (Downy mildew on vine (Neomuscat), 250 ppm spray, 2.5 ml/pot, assessed 7 to 10 days after inoculation) is on record as “H (more than 50% control value)”. In the experiment with Puccinia recondita (Brown rust on wheat, class of control value), the “Test E control value class” value is recorded as “H (more than 50% control value)”. Moreover, the “Test H control value class” value in experiment [1] (Anthracnose on cucumber (Sagami Hanjiro), 250 ppm spray, 2.5 ml/pot, assessed 6 to 10 days after inoculation) is “L (50% or less control value)”. For the same compound, the “Test C control value class” value in the experiment with Alternaia brassicicola (Alternaria sooty spot on cabbage, class of control value) is “H (more than 50% control value)”. Further, the “Test B control value class” value with Botrytis cinerea (Gray mold on tomato, class of control value) is “H (more than 50% control value)”. In experiment [2] (Powdery mildew on barley, class of control value), the “Test D control value class” value is “H (more than 50% control value)”. Also, the “Test F control value class” value in the experiment with Phytophthora infestans (Late blight on tomato, class of control value) is recorded as “L (50% or less control value)”.
As for `CCCc1cc(C)c(=O)n(C)c1-c1ccc(F)cc1Cl` [Compound No. 339, 6-(2-chloro-4-fluorophenyl)-1,3-dimethyl-5-propylpyridin-2(1H)-one], the pest or weed control at 250 µg/mL is more than 50% in the experiment with Magnaporthe grisea (Pyricularia oryzae, in Oryza sativa, read-out: Test A control value); more than 50% with Puccinia recondita (Puccinia recondita, topical, Brown rust on wheat, control value class, read-out: Test E control value); less than 50% with Alternaia brassicicola (Brassica oleracea, topical, Alternaria sooty spot on cabbage, control value class, read-out: Test C control value); more than 50% with Botrytis cinerea (Botrytis cinerea, in Solanum lycopersicum, topical, read-out: Test B control value); more than 50% in experiment [2] (Blumeria graminis, in Hordeum vulgare, topical, read-out: Test D control value); less than 50% in the experiment with Phytophthora infestans (Phytophthora infestans, in Solanum lycopersicum, topical, read-out: Test F control value). The pest or weed control at 250 ppm in the experiment with Plasmopara viticola (Plasmopara viticola, topical, 168 h, read-out: Test G control value) was more than 50%; in experiment [1] (Colletotrichum orbiculare, in Cucumis sativus, topical, 144 h, read-out: Test H control value), more than 50%.
As to `CCCc1cc(Cl)c(=O)n(C)c1-c1ccc(F)cc1Cl` [compound 332], in the experiment on Magnaporthe grisea (setting [3]), the “Test A control value” is on record as “H (more than 50% control value)”. In addition, the “Test G control value” in the experiment on Plasmopara viticola (setting [4]) is “L (50% or less control value)”. The “Test E control value” with Puccinia recondita (setting [5]) is “H (more than 50% control value)”. For the same compound, the “Test H control value” in experiment [1] (setting [6]) is listed as “H (more than 50% control value)”. Also, the “Test C control value” with Alternaia brassicicola (setting [7]) is on record as “H (more than 50% control value)”. For the same compound, the “Test B control value” in the experiment on Botrytis cinerea (setting [8]) is “H (more than 50% control value)”. The “Test D control value” in experiment [2] (setting [9]) is on record as “H (more than 50% control value)”. Besides, the “Test F control value” in the experiment with Phytophthora infestans (setting [10]) is “L (50% or less control value)”.
